pKi: −log10 of the molar value. Where a name gives a salt, the structure may show the parent alone.
Molecular target: T1, CHK1 (kinase domain) (Homo sapiens, UniProt O14757)
T1 construct: a solution containing 1 nM of CHK1 (kinase domain)
T1 sequence (O14757 9-265 limits assumed): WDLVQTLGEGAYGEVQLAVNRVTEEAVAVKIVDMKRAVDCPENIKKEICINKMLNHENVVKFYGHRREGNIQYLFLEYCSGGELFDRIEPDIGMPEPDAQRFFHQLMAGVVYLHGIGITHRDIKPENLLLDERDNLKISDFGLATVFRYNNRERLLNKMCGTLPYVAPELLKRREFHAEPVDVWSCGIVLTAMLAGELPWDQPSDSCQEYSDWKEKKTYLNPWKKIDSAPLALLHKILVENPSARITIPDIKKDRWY
Assay: CHK1 Ki determination, spectrophotometric coupled (pyruvate kinase/lactate dehydrogenase) assay
Assay type: biochemical
Details: CHK-1 kinase domain; for pKi: 150 uM ATP, 125 uM Syntide 2; for percent inhibition (where no Ki data is available): inhibitor concentration not given
Method: After 15 min pre-incubation, the enzymatic reaction was initiated by the simultaneous addition of Syntide 2 peptide (125 uM, final concentration) and ATP (150 uM, final concentration). The kinase-catalyzed production of ADP from ATP that accompanied phosphoryl transfer to the substrate Syntide 2 was coupled to the oxidation of NADH through the activities of pyruvate kinase and lactate dehydrogenase. NADH conversion to NAD^+ was monitored by the decrease in absorbance at 340 nm (ε=6.22 cm^−1 mM^−1) using a microplate reader from Molecular Devices Spectormax Plus (Sunnyvale, Calif.) or BMG LABTECH Inc (Offenburg, Germany).
The inhibition of CHK1 was analyzed by fitting the data to the following equation to determine Kiapp:
[formula] where [E]o and [I]o are the active enzyme and inhibitor concentration, respectively; Ki is the inhibition binding constant and Km the Michaelis-Menten constant for ATP; Vi and Vo are the rates of substrate oxidation in the presence of and in the absence of inhibitor, respectively. EC50 Determination (Cellular Assay)
Under the “Ki” column, data entries in the format of “%” are percent inhibition data where no Ki data is available. Data entry under the “EC50” column with an * are data obtained using Mia Paca-2 cells rather than HeLa cells. Data is not available where noted as n/a.

F[C@@H]1CNC[C@@H]1Nc1cncc(-c2cnn3ccccc23)n1 (relative stereo) [Example 45, Cis N-[4-fluoropyrrolidin-3-yl]-6-pyrazolo [1,5-a]pyridin-3-ylpyrazin-2-amine]
pKi: 6.23

c1ccn2c(-c3cncc(N[C@@H]4CCCNC4)n3)nnc2c1 [Example 8, N-[(3R)-piperidin-3-yl]-6-[1,2,4]triazolo[4,3-a]pyridin-3-ylpyrazin-2-amine]
percent inhibition (where no Ki data is available): 16.7%^

Cc1cccc2ncc(-c3cncc(N[C@@H]4CCNC4)n3)n12 [Example 58, 6-(5-Methylimidazo[1,2-a]pyridin-3-yl)-N-[(3R)-pyrrolidin-3-yl]pyrazin-2-amine]
percent inhibition (where no Ki data is available): 0%

c1ccc2c(c1)ncn2-c1cncc(N[C@H]2CCCNC2)n1 [Example 63, 6-(1H-benzimidazol-1-yl)-N-[(3S)-piperidin-3-yl]pyrazin-2-amine]
percent inhibition (where no Ki data is available): 35.5%^

Cc1ncc(-c2cncc(N[C@@H]3CC[C@@H](C)NC3)n2)n1Cc1ccccc1 [Example 68, 6-(1-benzyl-2-methyl-1H-imidazol-5-yl)-N-[(3R,6R)-6-methylpiperidin-3-yl]pyrazin-2-amine]
percent inhibition (where no Ki data is available): 0%

Cc1ncc(-c2cncc(NC3CCCCNC3)n2)n1C (stereo not drawn) [Example 69, N-[6-(1,2-dimethyl-1H-imidazol-5-yl)pyrazin-2-yl]azepan-3-amine]
percent inhibition (where no Ki data is available): 0.60%^

Cc1ncc(-c2cncc(N[C@@H]3CC[C@H](C)NC3)n2)n1C [Example 70, 6-(1,2-dimethyl-1H-imidazol-5-yl)-N-[(3R,6S)-6-methylpiperidin-3-yl]pyrazin-2-amine]
percent inhibition (where no Ki data is available): 0%

Cc1ncc(-c2cncc(N[C@@H]3CC[C@@H](C)NC3)n2)n1C [Example 71, 6-(1,2-dimethyl-1H-imidazol-5-yl)-N-[(3R,6R)-6-methylpiperidin-3-yl]pyrazin-2-amine]
percent inhibition (where no Ki data is available): 0%

Cc1ncc(-c2cncc(N[C@@H]3CCCNC3)n2)n1Cc1ccccc1 [Example 72, 6-(1-benzyl-2-methyl-1H-imidazol-5-yl)-N-[(3R)-piperidin-3-yl]pyrazin-2-amine]
percent inhibition (where no Ki data is available): 1.4%^

Cc1ncc(-c2cncc(N[C@@H]3CCNC3)n2)n1C [Example 73, 6-(1,2-dimethyl-1H-imidazol-5-yl)-N-[(3R)-pyrrolidin-3-yl]pyrazin-2-amine]
percent inhibition (where no Ki data is available): 0%

Cc1ncc(-c2cncc(NC3CCCCNC3)n2)n1Cc1ccccc1 (stereo not drawn) [Example 74, N-[6-(1-benzyl-2-methyl-1H-imidazol-5-yl)pyrazin-2-yl]azepan-3-amine]
percent inhibition (where no Ki data is available): 5.8%^

Cc1ncc(-c2cncc(N[C@@H]3CCNC3)n2)n1Cc1ccccc1 [Example 75, 6-(1-benzyl-2-methyl-1H-imidazol-5-yl)-N-[(3R)-pyrrolidin-3-yl]pyrazin-2-amine]
percent inhibition (where no Ki data is available): 6.7%^

Cc1ncc(-c2cncc(N[C@@H]3CNC[C@@H]3F)n2)n1C [Example 76, 6-(1,2-dimethyl-1H-imidazol-5-yl)-N-[(3R,4S)-4-fluoropyrrolidin-3-yl]pyrazin-2-amine]
percent inhibition (where no Ki data is available): 1.6%^

Cc1ncc(-c2cncc(N[C@H]3CNC[C@@H]3F)n2)n1C [Example 77, 6-(1,2-dimethyl-1H-imidazol-5-yl)-N-[(3S,4S)-4-fluoropyrrolidin-3-yl]pyrazin-2-amine]
percent inhibition (where no Ki data is available): 0%

c1cnn2c(-c3cncc(NC4CCCCNC4)n3)cnc2c1 (stereo not drawn) [Example 80, N-(6-imidazo[1,2-b]pyridazin-3-ylpyrazin-2-yl)azepan-3-amine, acetate salt]
pKi: 6.00

— patent US8518952B2, “6 substituted 2-heterocyclylamino pyrazine compounds as CHK-1 inhibitors” (Pfizer Inc., priority 2008, dated 2013)
